Laboratory results reported in paper PMC10643566, “Insights into the mechanism of SARS-CoV-2 main protease autocatalytic maturation from model precursors” (Communications Biology, 2023).
Values joined by “and” are separate entries in the source; they are usually repeats but may differ in a detail not shown here. Identical values can stand only once.

Key:
[1] = molecular target: MPro^1–199 (catalytic domain); conditions: read-out: GC373 binding (Kd), determined by ITC, ref [11],[13]; cited from earlier work
MPro^WT = conditions: read-out: GC373 binding (Kd), determined by ITC, ref [11],[13]; cited from earlier work
[2] = molecular target: MPro^M (E290A and R298A mutations); conditions: read-out: GC373 binding (Kd), determined by ITC, ref [11],[13]; cited from earlier work
nsp4/nsp5 cleavage site = type: biochemical, SARS-CoV-2

Row | Molecule | Kd [1] [µM] | Kd (MPro^WT) [µM] | Kd [2] [µM] | % Conversion at 15 h (nsp4/nsp5 cleavage site) | % Conversion at 24 h (nsp4/nsp5 cleavage site) | Δ[P] at 24 h (nsp4/nsp5 cleavage site)
1 | CC(C)C[C@H](NC(=O)OCc1ccccc1)C(=O)N[C@H](C=O)C[C@@H]1CCNC1=O [GC373] | 32 ± 5 | 0.15 | 6.13 ± 0.3 |  |  | 
2 | ^(−25)MPro^1–199: precursor with 25 nsp4 residues appended to the N-terminus of catalytic domain MPro^1–199 |  |  |  | 32.2% and 32.4% | 42.2% and 43.2% | 40.5 ± 0.4 µM and 20.7 ± 0.2 µM
